The record followed here is BindingDB's records for doi:10.1021/acsmedchemlett.0c00586 (University of Iowa, 2021).

What is called EC50 is the concentration giving half of the maximal effect.

The nature of this test: Binding affinity to BTN3A1 in human PBMC-derived Vgamma9/Vdelta2 T cells assessed as induction of Vgamma9Vdelta2 T cells proliferation incubated for 3 days by gamma delta TCR/PE-CD3+ antibody staining based FACS analysis. (In general: Flow cytometry measures light scatter and fluorescence of single cells or particles in a stream.)
For `C/C(C=O)=C\CCP(=O)(OCOC(=O)C(C)(C)C)Oc1ccc2ccccc2c1` (stereo not given), the half-maximal effective concentration (EC50) amounted to 4.6 nM.
Consider `C/C(C=O)=C\CCP(=O)(OCOC(=O)C(C)(C)C)Oc1ccc2ccc(=O)oc2c1` (stereo not given), for which the EC50 is 12 nM.
The value for `C/C(C=O)=C\CCP(=O)(OCOC(=O)C(C)(C)C)OCOC(=O)C(C)(C)C` was 47 nM.
The value for `C/C(C=O)=C\CCP(=O)(NCC(=O)OC(C)C)Oc1ccccc1` (stereo not given) was 49 nM.
For `CCOC(=O)CNP(=O)(CC/C=C(\C)C=O)Oc1ccccc1` (stereo not given) the value was 20 nM.
For the compound `COC(=O)CNP(=O)(CC/C=C(\C)C=O)Oc1ccccc1` (stereo not given), the concentration for a half-maximal effect (EC50) was determined as 47 nM.
The value for `CCOC(=O)CNP(=O)(CC/C=C(C)/C=N/O)Oc1ccccc1` (stereo not given) was 790 nM; that for `CCOC(=O)CNP(=O)(CCC=C(C)C)Oc1cccc2ccccc12` (stereo not given) was greater than 100000 nM.
`CC(C)=CCCP(=O)(O)O`: the concentration for a half-maximal effect (EC50) is greater than 100000 nM.
For `C/C(=C\CCP(=O)(OCOC(=O)C(C)(C)C)Oc1ccc2ccc(=O)oc2c1)CO` (stereo not given) the value was 8 nM.
